Data from ChEMBL document CHEMBL1201862, “PubChem BioAssay data set” (2004).
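A five-concentration, 48-hour dose response in 96-well plates underlies each endpoint, interpolated linearly between surrounding concentrations. The concentration for 50% growth inhibition is given as GI50.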 The source made the active and inactive calls. Rule as the data show it: active = GI50 up to about 1.1 µM and inactive = higher.

Columns and labels:
Assay in all cases: inhibition of tumour cell growth, NCI panel, 48 h
[1] = test system: DLD-1
[2] = test system: M19-MEL
[3] = test system: SNB-78
[4] = test system: KM-20L2
[5] = test system: HOP-18
[6] = test system: DMS-114
[7] = test system: XF498
[8] = test system: LXFL 529
[9] = test system: RXF 631

Structure (SMILES) | GI50 [1] | GI50 [2] | GI50 [3] | GI50 [4] | GI50 [5] | GI50 [6] | GI50 [7] | GI50 [8] | GI50 [9]
C=CCn1c2c(sc1=S)C(S)NC=N2 (stereo not drawn) | > 100 µM (inactive) | > 100 µM (inactive) | 78.2 µM (inactive) | > 100 µM (inactive) | 18.9 µM (inactive) | 43.7 µM (inactive) | > 100 µM (inactive) | > 100 µM (inactive) | –
O=C1c2cc([N+](=O)[O-])cc3cc([N+](=O)[O-])cc(c23)C(=O)N1CCCNCCNCCCN1C(=O)c2cc([N+](=O)[O-])cc3cc([N+](=O)[O-])cc(c23)C1=O | 0.0282 µM (active) | 0.0381 µM (active) | < 0.0193 µM (active) | 0.129 µM (active) | 0.542 µM (active) | 0.0469 µM (active) | < 0.01 µM (active) | < 0.01 µM (active) | –
C=C1C(=O)OC2/C=C(\C=O)CC/C=C(\C)C(O)C[C@@H]12 (stereo partly drawn) | 2.39 µM (inactive) | 5.45 µM (inactive) | 4.24 µM (inactive) | 9.25 µM (inactive) | 16.9 µM (inactive) | 11.7 µM (inactive) | 4.99 µM (inactive) | 3.36 µM (inactive) | –
CN1N=C(N)c2cn(C3OC(COP(=O)(O)O)C(O)C3O)c3ncnc1c23 (stereo not drawn) | 1.03 µM (active) | 390 µM (inactive) | 79.6 µM (inactive) | 58.5 µM (inactive) | 9.14 µM (inactive) | 1620 µM (inactive) | 12.4 µM (inactive) | – | –
CC1=CC(=O)C(C)(C2=NC(C)(C)CO2)c2ccccc21 (stereo not drawn) | > 100 µM (inactive) | > 100 µM (inactive) | – | > 100 µM (inactive) | 31.6 µM (inactive) | > 100 µM (inactive) | – | > 100 µM (inactive) | > 100 µM (inactive)
COC(=O)c1oc([N+](=O)[O-])c(-c2ccccc2)c1-c1ccccc1 | 76.2 µM (inactive) | 36.8 µM (inactive) | > 100 µM (inactive) | > 100 µM (inactive) | > 100 µM (inactive) | 88.3 µM (inactive) | > 100 µM (inactive) | > 100 µM (inactive) | > 100 µM (inactive)
CC(=O)Nc1ccc(C2C(C(=O)Nc3ccccc3)=C(C)NC(C)=C2C(=O)Nc2ccccc2)cc1 | 97.5 µM (inactive) | > 100 µM (inactive) | > 100 µM (inactive) | > 100 µM (inactive) | > 100 µM (inactive) | 35.7 µM (inactive) | > 100 µM (inactive) | > 64.9 µM (inactive) | –
CC1OC(=O)C2CC3CCCCC3C(/C=C/C3CCCC(C)N3C)C12 (stereo not drawn) | > 100 µM (inactive) | > 100 µM (inactive) | > 22.5 µM (inactive) | 79.8 µM (inactive) | > 100 µM (inactive) | > 100 µM (inactive) | > 100 µM (inactive) | > 100 µM (inactive) | –
COC(=O)/C(C=O)=C/Sc1ccccc1 | 21.4 µM (inactive) | 20 µM (inactive) | 26.5 µM (inactive) | 29.7 µM (inactive) | > 100 µM (inactive) | 16.7 µM (inactive) | 40 µM (inactive) | 18.3 µM (inactive) | 14.9 µM (inactive)
O=Cc1ccc(-c2ccc(-c3ccc(C=O)s3)o2)s1 | 74.5 µM (inactive) | > 100 µM (inactive) | > 72.8 µM (inactive) | 31.3 µM (inactive) | > 100 µM (inactive) | > 84.1 µM (inactive) | – | 0.186 µM (active) | 0.541 µM (active)
CCC1CN2CCc3cc(OC)c(OC)cc3C2CC1CC1c2cc(OC)c(OC)cc2CCN1C(=O)C(Cc1c[nH]c2ccccc12)NC(=O)OC(C)(C)C (stereo not drawn) | 8.39 µM (inactive) | 1.69 µM (inactive) | 15.5 µM (inactive) | 1.87 µM (inactive) | 4.13 µM (inactive) | 1.38 µM (inactive) | 1.78 µM (inactive) | 3.94 µM (inactive) | –
O=S1OC2(c3ccccc3-c3ccccc32)c2ccccc21 (stereo not drawn) | > 100 µM (inactive) | > 100 µM (inactive) | – | > 100 µM (inactive) | > 100 µM (inactive) | > 100 µM (inactive) | > 100 µM (inactive) | > 100 µM (inactive) | –
N#Cc1c(N)c(C(=O)O)nn(-c2cccc(C(F)(F)F)c2)c1=O | 70.3 µM (inactive) | > 100 µM (inactive) | > 100 µM (inactive) | > 100 µM (inactive) | 29.2 µM (inactive) | – | > 100 µM (inactive) | > 100 µM (inactive) | > 100 µM (inactive)
NNC(=S)N/N=C(\c1nc2ccc(Cl)cc2nc1O)C(O)c1cccc([N+](=O)[O-])c1 (stereo not drawn) | – | > 100 µM (inactive) | > 100 µM (inactive) | > 100 µM (inactive) | > 100 µM (inactive) | – | > 100 µM (inactive) | > 74.6 µM (inactive) | 32.3 µM (inactive)
CN(C)C(=S)/N=c1\ss/c(=N\C(=S)N(C)C)n1-c1ccc(Cl)cc1 | – | – | > 100 µM (inactive) | > 100 µM (inactive) | – | – | > 100 µM (inactive) | > 100 µM (inactive) | –
FC(F)(F)C1(Br)C(c2ccccc2)=C1c1ccccc1 | 14.7 µM (inactive) | 15.6 µM (inactive) | 25.8 µM (inactive) | 16.1 µM (inactive) | 16.5 µM (inactive) | 15.2 µM (inactive) | 15.2 µM (inactive) | 14.3 µM (inactive) | 22.6 µM (inactive)
CCOC(=O)C(=O)Nc1c(CC)cccc1C(C)C | > 100 µM (inactive) | > 100 µM (inactive) | > 100 µM (inactive) | > 100 µM (inactive) | – | – | > 100 µM (inactive) | > 100 µM (inactive) | –
Cc1cc(=O)oc2c(C)c(OCCCOc3ccc4c(C)cc(=O)oc4c3C)ccc12 | > 100 µM (inactive) | > 100 µM (inactive) | > 100 µM (inactive) | > 100 µM (inactive) | > 100 µM (inactive) | > 100 µM (inactive) | > 100 µM (inactive) | > 100 µM (inactive) | –
Clc1ccc2cccc3c2c1C1OC3c2ccccc21 (stereo not drawn) | > 100 µM (inactive) | > 100 µM (inactive) | > 100 µM (inactive) | 78.9 µM (inactive) | > 100 µM (inactive) | > 100 µM (inactive) | > 100 µM (inactive) | > 100 µM (inactive) | –
CC(C)OP(=O)(OC(C)C)/C(=N/Nc1ccc([N+](=O)[O-])cc1)NN | > 100 µM (inactive) | > 100 µM (inactive) | > 100 µM (inactive) | > 100 µM (inactive) | – | 61.1 µM (inactive) | 68.9 µM (inactive) | 41.5 µM (inactive) | –
CC(C)(C)OC(=O)C1=C(O)C(C(=O)OC(C)(C)C)C23CCCCC12C(C(=O)OC(C)(C)C)C(O)=C3C(=O)OC(C)(C)C (stereo not drawn) | > 100 µM (inactive) | > 100 µM (inactive) | > 100 µM (inactive) | > 100 µM (inactive) | > 100 µM (inactive) | > 100 µM (inactive) | > 100 µM (inactive) | > 100 µM (inactive) | –
Cc1ccccc1NC(=O)C(=O)C(C#N)c1ccccc1C (stereo not drawn) | > 100 µM (inactive) | – | > 100 µM (inactive) | > 100 µM (inactive) | > 100 µM (inactive) | > 100 µM (inactive) | 34 µM (inactive) | > 100 µM (inactive) | –
N#CCC(=O)N/N=C(\C(=O)Nc1ccc(Cl)c(Cl)c1)C1CN(c2ccccc2)N=C1N (stereo not drawn) | > 100 µM (inactive) | > 100 µM (inactive) | > 100 µM (inactive) | > 100 µM (inactive) | > 100 µM (inactive) | > 100 µM (inactive) | – | > 100 µM (inactive) | –
O=C1C2C(C(=O)N1c1ccccc1)C1c3ccccc3C2C2C(=O)N(c3ccccc3)C(=O)C21 (stereo not drawn) | 2.73 µM (inactive) | 39.5 µM (inactive) | – | 18.2 µM (inactive) | > 100 µM (inactive) | 3.08 µM (inactive) | – | 38.5 µM (inactive) | –
O=CC[C@H]1CCc2ccccc2C12CCC(=O)CC2 | 60.7 µM (inactive) | 57.7 µM (inactive) | – | 22.1 µM (inactive) | – | 33.8 µM (inactive) | 51.5 µM (inactive) | 57.5 µM (inactive) | > 100 µM (inactive)
O=S1(=O)OCCOS(=O)(=O)C1(Br)Br | > 100 µM (inactive) | > 100 µM (inactive) | > 100 µM (inactive) | – | – | > 100 µM (inactive) | – | > 100 µM (inactive) | –
CNc1ccc(/C=C2\C=Cc3ccccc32)cc1 | 31.3 µM (inactive) | 43.2 µM (inactive) | 44.6 µM (inactive) | 19.1 µM (inactive) | 16.4 µM (inactive) | 17 µM (inactive) | 40.9 µM (inactive) | 25.9 µM (inactive) | –
Cc1c2c(cc3c(=O)ccn(CCN(C)C)c13)c(=O)ccn2CCN(C)C | 6.84 µM (inactive) | 16.4 µM (inactive) | 47.1 µM (inactive) | 5.04 µM (inactive) | 15.7 µM (inactive) | 16.3 µM (inactive) | 10.4 µM (inactive) | 4.46 µM (inactive) | –
